Data: patent US7452911B2 (Boehringer Ingelheim Pharma GmbH & Co. KG, priority 2002, dated 2008)

Assays:
hMCH-1R = target: T1, hMCH-1R (Homo sapiens, UniProt Q99705); test: MCH-1 receptor binding test (125I-MCH binding to membranes of hMCH-1R transfected CHO/Galpha16 cells); details: 100 pM 125I-MCH, membranes of CHO/Galpha16 cells stably transfected with hMCH-1R, 60 minutes at ambient temperature
T1 construct: expressed in transfected cells; host or cells: CHO/Galpha16 cells, stably transfected; membrane preparation
Protocol: Membranes from CHO/Galpha16 cells stably transfected with human hMCH-1R are resuspended using a syringe (needle 0.6×25 mm) and diluted in test buffer (50 mM HEPES, 10 mM MgCl2, 2 mM EGTA, pH 7.00; 0.1% bovine serum albumin (protease-free), 0.021% bacitracin, 1 μg/ml aprotinin, 1 μg/ml leupeptin and 1 μM phosphoramidone) to a concentration of 5 to 15 μg/ml. […] After the incubation the reaction is filtered using a cell harvester through 0.5% PEI treated glass fibre filters (GF/B, Unifilter Packard). The membrane-bound radioactivity retained on the filter is then determined after the addition of scintillator substance (Packard Microscint 20) in a measuring device (TopCount of Packard).
The analysis of the concentration binding curve is carried out on the assumption of one receptor binding site.

MCH-1R [1] = target: T2, MCH-1R (Rattus norvegicus, UniProt P97639); parameters: host or cells: whole animals (in vivo); details: animals treated with the antagonist; cited from earlier work
MCH-1R [2] = target: T2, MCH-1R; parameters: host or cells: rats (in vivo); details: rats; cited from earlier work

T2 sequence (P97639 whole entry): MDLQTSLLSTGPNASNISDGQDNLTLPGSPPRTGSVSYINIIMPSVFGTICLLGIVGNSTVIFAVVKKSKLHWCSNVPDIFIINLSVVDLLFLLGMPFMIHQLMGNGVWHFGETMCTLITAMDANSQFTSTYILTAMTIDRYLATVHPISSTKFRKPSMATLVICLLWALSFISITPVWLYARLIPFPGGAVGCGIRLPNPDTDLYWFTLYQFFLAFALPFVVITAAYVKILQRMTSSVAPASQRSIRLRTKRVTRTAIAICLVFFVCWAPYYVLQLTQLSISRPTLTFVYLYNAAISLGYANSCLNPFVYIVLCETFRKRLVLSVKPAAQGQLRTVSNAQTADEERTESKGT
T1 sequence (Q99705 whole entry): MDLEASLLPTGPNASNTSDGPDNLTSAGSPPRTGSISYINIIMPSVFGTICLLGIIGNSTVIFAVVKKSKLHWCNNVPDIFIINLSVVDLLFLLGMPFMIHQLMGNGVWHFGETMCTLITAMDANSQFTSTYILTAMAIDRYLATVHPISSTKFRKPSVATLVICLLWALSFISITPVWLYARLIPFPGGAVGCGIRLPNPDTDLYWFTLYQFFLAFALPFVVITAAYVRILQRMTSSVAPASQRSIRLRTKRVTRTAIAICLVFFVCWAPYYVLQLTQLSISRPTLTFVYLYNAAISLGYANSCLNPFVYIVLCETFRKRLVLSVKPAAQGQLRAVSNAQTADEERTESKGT

Row | melting point | Structure (SMILES) | also measured
1 | > 250 °C | CN(C)CC1CCN(CCOc2ccc(C#Cc3ccc(-c4ccc(Cl)cc4)cn3)cc2)CC1.Cl | 
2 |  | CCN(CC)CCOc1ccc(C#Cc2ccc(-c3ccc(F)c(F)c3)cn2)cc1 [Example 1.3, (2-{4-[5-(3,4-difluoro-phenyl)-pyridin-2-ylethynyl]-phenoxy}-ethyl)-diethyl-amine] | IC50 (hMCH-1R): 0.074 µM
3 | 170 to 193 °C | Clc1ccc(-c2ccc3nc(C#Cc4ccc(CN5CCCC5)cc4)ccc3c2)cc1 [Example 17, 6-(4-chloro-phenyl)-2-(4-pyrrolidin-1-ylmethyl-phenylethynyl)-quinoline] | 
4 | 176 to 185 °C | Clc1ccc(-c2ccc3nc(C#Cc4ccc(OCCN5CCCC5)cc4)ccc3c2)cc1 [Example 18, 6-(4-chloro-phenyl)-2-[4-(2-pyrrolidin-1-yl-ethoxy)-phenylethynyl]-quinoline] | 
5 | 114 to 117 °C | Clc1ccc(-c2ccc3nc(C#Cc4cccc(OCCN5CCCC5)c4)ccc3c2)cc1 [Example 19, 6-(4-chloro-phenyl)-2-[3-(2-pyrrolidin-1-yl-ethoxy)-phenylethynyl]-quinoline] | 
6 | 151 to 153 °C | Clc1ccc(-c2ccc3nc(C#Cc4ccc5oc(CN6CCCC6)nc5c4)ccc3c2)cc1 [Example 20, 6-(4-chloro-phenyl)-2-(2-pyrrolidin-1-ylmethyl-benzoxazol-5-ylethynyl)-quinoline] | 
7 | 145 °C | Clc1ccc(-c2ccc(C#Cc3ccc4oc(CN5CCCC5)nc4c3)nc2)cc1 [Example 21, 5-[5-(4-chloro-phenyl)-pyridin-2-ylethynyl]-2-pyrrolidin-1-ylmethyl-benzoxazole] | 
8 |  | COCC1=C(C(=O)OC)[C@H](c2ccc(F)c(F)c2)N(C(=O)NCCCN2CCC(c3cccc(NC(C)=O)c3)CC2)C(=O)N1 [SNAP-7941] | body weight in long term trials (MCH-1R [1]): lose significant amounts of weight; effects in behavioural experiments (MCH-1R [2]): anxiolytic and antidepressant effects
